Source: the NIST ThermoML archive (doi:10.1021/acs.jced.7b00221)
Numbers after ± are expanded uncertainties.

Experiment: xn = mol fraction of the nth substance listed
Settings: 100 kPa, Liquid; for viscosity: Cone and plate viscometry; for mass density: Vibrating tube method

CCCCCCn1cc[n+](C)c1C.O=[N+]([O-])c1cn[n-]c1 [1-hexyl-2,3-dimethylimidazolium 4-nitropyrazolide] + CCCCCCCCCCCCCC[P+](CCCCCC)(CCCCCC)CCCCCC.O=S(=O)([N-]S(=O)(=O)C(F)(F)F)C(F)(F)F
Settings	mass density, x1 = 0.25 [kg/m3]	mass density, x1 = 0.501 [kg/m3]	mass density, x1 = 0.749 [kg/m3]	viscosity, x1 = 0.098 [mPa·s]	viscosity, x1 = 0.303 [mPa·s]	viscosity, x1 = 0.5 [mPa·s]	viscosity, x1 = 0.7 [mPa·s]	viscosity, x1 = 0.898 [mPa·s]
278.15 K	–	–	–	1280 ± 170	1562 ± 210	2212 ± 310	3692 ± 540	7584 ± 1200
283.15 K	1081.8 ± 12	1090.2 ± 12	1104.2 ± 12	871 ± 120	1040 ± 140	1418 ± 190	2223 ± 310	4009 ± 590
288.15 K	1078.2 ± 12	1086.7 ± 12	1100.5 ± 12	606 ± 78	707 ± 92	933 ± 120	1385 ± 190	2241 ± 320
293.15 K	1074.6 ± 12	1083.2 ± 12	1097 ± 12	434 ± 55	495 ± 63	636 ± 83	897 ± 120	1330 ± 180
295.15 K	1073.2 ± 12	1081.7 ± 12	1095.7 ± 12	–	–	–	–	–
298.15 K	1071.1 ± 12	1079.7 ± 12	1093.6 ± 12	319 ± 40	357 ± 45	447 ± 57	605 ± 78	830 ± 110
303.15 K	1067.5 ± 12	1076.2 ± 12	1090.3 ± 12	239 ± 30	264 ± 33	324 ± 41	422 ± 54	545 ± 70
308.15 K	1063.9 ± 12	1072.7 ± 12	1086.9 ± 12	184 ± 23	200 ± 25	240 ± 30	304 ± 38	373 ± 47
313.15 K	1060.4 ± 12	1069.3 ± 12	1083.5 ± 12	144 ± 18	154 ± 19	182 ± 22	223 ± 28	263 ± 33
318.15 K	1057 ± 12	1065.9 ± 12	1080.2 ± 12	115 ± 14	121 ± 15	142 ± 17	169 ± 21	192 ± 24
323.15 K	1053.5 ± 12	1062.6 ± 12	1077 ± 12	93 ± 11	97 ± 12	112 ± 14	131 ± 16	144 ± 18
328.15 K	1050 ± 12	1059.2 ± 12	1073.7 ± 12	–	–	–	–	–
333.15 K	1046.5 ± 12	1055.8 ± 12	1070.5 ± 12	–	–	–	–	–
338.15 K	1043 ± 12	1052.4 ± 12	1067.2 ± 12	–	–	–	–	–
343.15 K	1039.5 ± 12	1049 ± 12	1064 ± 12	–	–	–	–	–
348.15 K	1036.1 ± 12	1045.7 ± 12	1060.7 ± 12	–	–	–	–	–
353.15 K	1032.6 ± 12	1042.3 ± 12	1057.5 ± 12	–	–	–	–	–

CCCCCCn1cc[n+](C)c1.N#Cc1ccc[n-]1 [1-hexyl-3-methylimidazolium 2-cyanopyrrolide] + CCCCCCCCCCCCCC[P+](CCCCCC)(CCCCCC)CCCCCC.O=S(=O)([N-]S(=O)(=O)C(F)(F)F)C(F)(F)F
viscosity [mPa·s]
Settings	278.15 K	283.15 K	288.15 K	293.15 K	298.15 K	303.15 K	308.15 K	313.15 K	318.15 K	323.15 K
x1 = 0.1	1166 ± 160	806 ± 110	568 ± 73	410 ± 52	303 ± 38	229 ± 28	176 ± 22	138 ± 17	110 ± 13	89 ± 11
x1 = 0.2	1261 ± 170	867 ± 120	605 ± 78	435 ± 55	320 ± 40	241 ± 30	185 ± 23	145 ± 18	115 ± 14	93 ± 11
x1 = 0.3	1258 ± 170	851 ± 110	589 ± 76	419 ± 53	307 ± 39	230 ± 29	176 ± 22	137 ± 17	109 ± 13	87 ± 11
x1 = 0.399	1299 ± 180	876 ± 120	602 ± 78	426 ± 54	310 ± 39	231 ± 29	177 ± 22	137 ± 17	109 ± 13	88 ± 11
x1 = 0.499	1275 ± 170	846 ± 110	575 ± 75	404 ± 51	292 ± 37	216 ± 27	164 ± 20	127 ± 16	100 ± 12	81 ± 10
x1 = 0.6	1379 ± 190	905 ± 120	612 ± 80	423 ± 54	304 ± 38	224 ± 28	169 ± 21	130 ± 16	102 ± 12	82 ± 10
x1 = 0.7	1410 ± 190	910 ± 120	603 ± 79	416 ± 53	295 ± 37	216 ± 27	162 ± 20	125 ± 15	97 ± 12	78 ± 10
x1 = 0.8	1397 ± 190	877 ± 120	571 ± 74	387 ± 50	271 ± 34	196 ± 24	146 ± 18	112 ± 14	87 ± 11	69 ± 8
x1 = 0.9	1461 ± 200	893 ± 120	566 ± 74	374 ± 48	257 ± 32	183 ± 23	135 ± 17	101 ± 12	79 ± 10	62 ± 8
x1 = 1	1540 ± 210	902 ± 120	553 ± 72	355 ± 45	239 ± 30	167 ± 21	122 ± 15	91 ± 11	70 ± 9	55 ± 7
